# Experiments:
# Experiment in all cases: GC-MS of terpene products after phosphatase treatment
# Format in all cases: biochemical
# [1] = target: T1, AlTPS3 (Wurfbainia longiligularis, UniProt A0A7L7T473, A496G); conditions: overnight incubation with GPP; conserved DTE motif
# T1 construct: gene TPS3; ORF 1791 bp, printed as 597 residues; predicted 47-residue N-terminal plastid transit peptide removed
# [2] = target: T2, AvTPS2 (Wurfbainia villosa, UniProt A0A7L7TAQ2); conditions: 30 C, 1 h; then alkaline phosphatase 37 C
# T2 construct: gene TPS2; full ORF 587 residues; predicted 34-residue N-terminal plastid transit peptide removed
# T2 sequence (A0A7L7TAQ2 35-587): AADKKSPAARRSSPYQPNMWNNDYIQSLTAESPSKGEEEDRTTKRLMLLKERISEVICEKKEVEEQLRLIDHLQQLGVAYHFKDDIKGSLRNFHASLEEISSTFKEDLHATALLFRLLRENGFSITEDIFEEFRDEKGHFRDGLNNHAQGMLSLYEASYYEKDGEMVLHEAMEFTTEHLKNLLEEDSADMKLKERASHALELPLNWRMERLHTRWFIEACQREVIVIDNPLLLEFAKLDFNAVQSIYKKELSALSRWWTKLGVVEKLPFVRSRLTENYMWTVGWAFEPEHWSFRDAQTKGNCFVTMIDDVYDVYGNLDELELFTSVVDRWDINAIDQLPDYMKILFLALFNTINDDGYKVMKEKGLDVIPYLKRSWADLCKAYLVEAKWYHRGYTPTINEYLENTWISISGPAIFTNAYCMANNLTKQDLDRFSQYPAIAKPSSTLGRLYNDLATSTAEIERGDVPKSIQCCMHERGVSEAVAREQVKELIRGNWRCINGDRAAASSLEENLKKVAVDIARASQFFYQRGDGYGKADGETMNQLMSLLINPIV
# [3] = target: T3, AvBPPS (Wurfbainia villosa, UniProt A0A2Z4K4Q8); conditions: 30 C, 1 h; then alkaline phosphatase 37 C
# T3 construct: gene TPS3; full length 596 residues; recombinant, cloned in the authors' earlier work (Wang et al. 2018); truncation and tag not restated here
# [4] = target: T4, AlTPS3 (Wurfbainia longiligularis, UniProt A0A7L7T473); conditions: 30 C, 1 h; then alkaline phosphatase 37 C
# T4 construct: gene TPS3; ORF 1791 bp, printed as 597 residues; predicted 47-residue N-terminal plastid transit peptide removed
# T4 sequence (A0A7L7T473 48-597): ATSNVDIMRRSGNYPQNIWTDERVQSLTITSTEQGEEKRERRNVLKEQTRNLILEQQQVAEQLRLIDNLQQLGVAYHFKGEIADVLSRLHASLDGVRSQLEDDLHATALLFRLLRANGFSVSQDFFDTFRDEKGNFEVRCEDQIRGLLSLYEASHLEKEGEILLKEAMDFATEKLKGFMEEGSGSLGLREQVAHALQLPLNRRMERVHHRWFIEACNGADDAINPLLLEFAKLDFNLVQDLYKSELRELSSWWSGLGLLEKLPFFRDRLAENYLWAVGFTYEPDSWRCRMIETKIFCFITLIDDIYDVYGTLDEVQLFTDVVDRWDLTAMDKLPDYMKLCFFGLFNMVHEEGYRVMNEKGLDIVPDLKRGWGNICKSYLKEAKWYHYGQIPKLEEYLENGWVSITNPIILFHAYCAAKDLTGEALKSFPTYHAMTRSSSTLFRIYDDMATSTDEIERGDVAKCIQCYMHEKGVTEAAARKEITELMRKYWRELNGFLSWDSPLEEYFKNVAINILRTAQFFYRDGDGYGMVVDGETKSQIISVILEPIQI
# [5] = target: T5, AlTPS2 (Wurfbainia longiligularis, UniProt A0A7L7T499); conditions: 30 C, 1 h; then alkaline phosphatase 37 C
# T5 construct: gene TPS2; full ORF 587 residues; predicted 34-residue N-terminal plastid transit peptide removed; MBP fusion (pMAL-c5X), E. coli Rosetta (DE3), about 108 kDa, tag kept
# T5 sequence (A0A7L7T499 35-587): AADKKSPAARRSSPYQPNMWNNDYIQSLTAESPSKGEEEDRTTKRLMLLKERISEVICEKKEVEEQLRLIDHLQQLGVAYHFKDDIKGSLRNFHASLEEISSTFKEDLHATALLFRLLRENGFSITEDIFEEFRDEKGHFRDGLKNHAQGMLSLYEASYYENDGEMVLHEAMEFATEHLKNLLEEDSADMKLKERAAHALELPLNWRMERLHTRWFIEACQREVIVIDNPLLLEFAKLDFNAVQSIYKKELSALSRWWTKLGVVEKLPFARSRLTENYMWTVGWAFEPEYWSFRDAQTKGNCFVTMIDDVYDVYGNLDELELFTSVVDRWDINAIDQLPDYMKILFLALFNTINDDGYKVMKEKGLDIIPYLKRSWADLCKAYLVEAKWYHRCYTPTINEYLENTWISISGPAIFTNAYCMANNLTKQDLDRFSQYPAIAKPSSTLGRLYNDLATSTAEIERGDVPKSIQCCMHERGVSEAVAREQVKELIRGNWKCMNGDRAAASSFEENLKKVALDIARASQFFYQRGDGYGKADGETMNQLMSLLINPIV
# T3 sequence (A0A2Z4K4Q8 entry or part of it): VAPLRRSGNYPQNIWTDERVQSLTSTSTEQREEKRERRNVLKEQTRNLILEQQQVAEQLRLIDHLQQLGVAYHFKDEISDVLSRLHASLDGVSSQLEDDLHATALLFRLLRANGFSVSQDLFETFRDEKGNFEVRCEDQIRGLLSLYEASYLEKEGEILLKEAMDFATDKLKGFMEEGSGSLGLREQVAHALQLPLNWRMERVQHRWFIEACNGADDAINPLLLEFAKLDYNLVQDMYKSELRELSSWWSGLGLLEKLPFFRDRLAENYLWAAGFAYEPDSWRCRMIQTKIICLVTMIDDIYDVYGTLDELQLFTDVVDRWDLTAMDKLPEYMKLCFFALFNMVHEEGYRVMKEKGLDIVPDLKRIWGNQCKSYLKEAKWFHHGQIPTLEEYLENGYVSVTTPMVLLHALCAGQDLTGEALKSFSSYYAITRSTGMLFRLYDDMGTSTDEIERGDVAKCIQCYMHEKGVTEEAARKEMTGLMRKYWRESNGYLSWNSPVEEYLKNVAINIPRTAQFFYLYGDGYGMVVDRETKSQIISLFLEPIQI
# T1 sequence (A0A7L7T473 entry or part of it A496G): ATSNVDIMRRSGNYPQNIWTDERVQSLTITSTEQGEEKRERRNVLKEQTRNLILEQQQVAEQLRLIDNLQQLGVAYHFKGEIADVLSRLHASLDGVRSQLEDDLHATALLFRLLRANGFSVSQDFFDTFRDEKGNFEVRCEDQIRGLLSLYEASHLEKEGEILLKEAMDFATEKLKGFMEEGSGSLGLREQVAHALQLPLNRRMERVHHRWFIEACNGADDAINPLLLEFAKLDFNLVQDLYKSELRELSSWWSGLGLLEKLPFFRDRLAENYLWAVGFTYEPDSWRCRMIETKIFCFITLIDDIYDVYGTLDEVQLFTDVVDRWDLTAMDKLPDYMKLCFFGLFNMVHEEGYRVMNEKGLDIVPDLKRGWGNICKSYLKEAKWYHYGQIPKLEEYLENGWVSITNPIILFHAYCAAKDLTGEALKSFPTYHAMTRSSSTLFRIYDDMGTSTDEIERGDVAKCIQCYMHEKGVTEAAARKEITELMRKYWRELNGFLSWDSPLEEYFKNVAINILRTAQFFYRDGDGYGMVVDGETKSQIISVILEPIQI
structure (smiles),measurement,setting,value
CC(C)=CCC/C(C)=C/COP(=O)(O)OP(=O)(O)O [GPP],GC-MS of terpene products after phosphatase treatment,[1],"the site-directed mutant of AlTPS3-A496G and AvBPPS-G495A were constructed, and the overnight reaction with GPP"
same,GC-MS of terpene products after phosphatase treatment,[2],"When the substrate was GPP, AlTPS2, and AvTPS2 produced the monoterpene product linalool"
same,GC-MS of terpene products after phosphatase treatment,[3],reaction products generated by recombinant protein AlTPS3 and AvBPPS from GPP
same,GC-MS of terpene products after phosphatase treatment,[4],AlTPS3 recombinant protein catalyzed GPP to produce camphene as the major product
same,GC-MS of terpene products after phosphatase treatment,[5],"When the substrate was GPP, AlTPS2, and AvTPS2 produced the monoterpene product linalool"

# — publication PMC8406774, “A Comparison of Two Monoterpenoid Synthases Reveals Molecular Mechanisms Associated With the Difference of Bioactive Monoterpenoids Between Amomum villosum and Amomum longiligulare” (Frontiers in Plant Science, 2021)
